We go through 50 sequences from PMC11405051, “HLA A*24:02–restricted T cell receptors cross-recognize bacterial and preproinsulin peptides in type 1 diabetes” (The Journal of Clinical Investigation, 2024).

pEC50: −log10 of the molar value.

For one assay, the system named is tetramer-enriched T cell lines from HLA A*24+ healthy donors. Nature of the assay: Tetramer staining of tetramer-enriched T cell lines from HLA A*24+ healthy donors. The format is cell-based, human. As to conditions: CMV […] tetramer-enriched line, donor 572D, single-staining.
Description: The 4C6 T-cell clone was rested overnight in R5 media, as above then incubated with antigen presenting
cells, with 3 x104 4C6 T-cells and 6 x10^4 antigen presenting cells per well of a 96U well plate. The cells were
incubated overnight in R5 media at 37°C and 5% CO2, with all conditions performed in triplicate.
Supernatants were harvested and MIP-1β or TNF production measured by enzyme-linked immunosorbent
assay (ELISA, R&D Systems, Bio-Techne, Minneapolis, MN, US). Experiment 1 used C1R cells +/- HLA
A*24:02 +/- IGF2BP2 (irrelevant control), gsiA or fes genes. Experiment 2 used THP-1 and A549 cells: WT
and + HLA A*A24:02 +/- gsiA or fes genes. PHA (10 μg/mL) as a positive control and exogenous Klebsiella
peptides at 10 μM for comparison were also included. MIP-1β or TNF values for 4C6 T-cells or antigen
presenting cells incubated alone were subtracted during analysis.
Turning to “AYAAAAAAL [irrelevant HLA A*24:02 peptide used in control tetramers]”, the “% tetramer+” value worked out at 0%.

Still in this assay, the particulars now being: CMV […] tetramer-enriched line, donor BB25, single-staining.
Regarding “AYAAAAAAL [irrelevant HLA A*24:02 peptide used in control tetramers]”, the “% tetramer+” value worked out at 0.05%.

The assay is the same for the next values; noted with them: CMV […] tetramer-enriched line, donor BB31, single-staining.
Regarding “AYAAAAAAL [irrelevant HLA A*24:02 peptide used in control tetramers]”, the “% tetramer+” value is 0.05%.

Staying with this assay, now noted: CMV […] tetramer-enriched line, donor BB51, single-staining.
“AYAAAAAAL [irrelevant HLA A*24:02 peptide used in control tetramers]”: the “% tetramer+” value was 0.1%.

The assay is the same for the next values; noted with them: CMV […] tetramer-enriched line, donor BB52, single-staining.
For “AYAAAAAAL [irrelevant HLA A*24:02 peptide used in control tetramers]”, the “% tetramer+” value was determined as 0.04%.

Still in this assay, the particulars now being: CMV […] tetramer-enriched line, donor BB57, single-staining.
In the case of “AYAAAAAAL [irrelevant HLA A*24:02 peptide used in control tetramers]”, the “% tetramer+” value is 0.02%.

The same assay, now with this note: CMV […] tetramer-enriched line, donor BB64, single-staining.
On to “AYAAAAAAL [irrelevant HLA A*24:02 peptide used in control tetramers]”, for which the “% tetramer+” value came to 0.3%.

Staying with this assay, now noted: Kleb SLPRLFPLL tetramer-enriched line, donor 572D, single-staining.
For “AYAAAAAAL [irrelevant HLA A*24:02 peptide used in control tetramers]”, the “% tetramer+” value is given as 0%.

Staying with this assay, now noted: Kleb SLPRLFPLL tetramer-enriched line, donor BB25, single-staining.
Turning to “AYAAAAAAL [irrelevant HLA A*24:02 peptide used in control tetramers]”, the “% tetramer+” value came to 0.03%.

The assay is the same for the next values; noted with them: Kleb SLPRLFPLL tetramer-enriched line, donor BB31, single-staining.
On to “AYAAAAAAL [irrelevant HLA A*24:02 peptide used in control tetramers]”, for which the “% tetramer+” value worked out at 0.5%.

The same assay, now with this note: Kleb SLPRLFPLL tetramer-enriched line, donor BB51, single-staining.
With “AYAAAAAAL [irrelevant HLA A*24:02 peptide used in control tetramers]”, the “% tetramer+” value is 0.1%.

Staying with this assay, now noted: Kleb SLPRLFPLL tetramer-enriched line, donor BB52, single-staining.
As to “AYAAAAAAL [irrelevant HLA A*24:02 peptide used in control tetramers]”, the “% tetramer+” value was 0%.

The assay is the same for the next values; noted with them: Kleb SLPRLFPLL tetramer-enriched line, donor BB57, single-staining.
As to “AYAAAAAAL [irrelevant HLA A*24:02 peptide used in control tetramers]”, the “% tetramer+” value turned out to be 0.06%.

The same assay, now with this note: Kleb SLPRLFPLL tetramer-enriched line, donor BB64, single-staining.
Turning to “AYAAAAAAL [irrelevant HLA A*24:02 peptide used in control tetramers]”, the “% tetramer+” value is 0.4%.

For the next assay, the system named is 4C6 T cell clone. Briefly: Peptide titration activation assay of 4C6 T cell clone, MIP-1β ELISA. It is filed as cell-based, human. As to conditions: Supplementary Figure 5; 60 biased-sampling peptides and index; 4C6 overnight with C1R-HLA A24:02, MIP-1β ELISA, duplicate conditions.
Description: 4C6 T-cells were rested overnight in R5 media (as for R10 but with 5% FBS) to reduce
spontaneous activation, followed by incubation in the presence of C1R-HLA A*24:02, with peptide mixtures
of defined length and random amino acid sequence (X8-14 in which X is any of the 20 proteogenic L-amino
acids, excluding cysteine) in R5 media overnight at 37°C and 5% CO2. MIP-1β production was measured by
enzyme-linked immunosorbent assay (ELISA, R&D Systems, Bio-Techne, Minneapolis, MN, US) as a proxy
for T cell activation as previously described (22). Peptide mixtures were synthesised at >40% purity
(Pepscan Presto, Lelystad, Netherlands) and stored at -80°C in DMSO at 40 mM. Mixtures were used in
assays at a concentration of 1 mM. Following conformation of the preference of 4C6 T-cells for 9-mer
peptides, nonamer PS-CPL screening was performed using libraries synthesised at >40% purity as
described previously (22, 23, 43). Libraries were stored at -80°C in DMSO at 20 mM. For assays, 6×104
C1R-HLA A*24:02 were pulsed with 100 μM of each CPL library mixture for 2 h at 37°C. Following this,
3×10^4 4C6 T cells were co-incubated with the pulsed C1R-HLA A*24:02 cells overnight at 37°C and 5% CO2.
Assay conditions were performed in duplicate. Supernatants were harvested the following morning and
assayed for the presence of MIP-1β, as above, by ELISA.
universe with bias toward good agonists.
As usually defined, the pEC50 is the EC50 on a negative log10 scale, so that one unit is a factor of ten. Sequence “NHPRLVGVI [9-mer drawn by CPL-biased importance sampling]” had a pEC50 of under 5.00.
The same measure, in the same setting: the figure for “EMQPLFGMV [9-mer drawn by CPL-biased importance sampling]” is under 5.00.
Same read-out and setting: with “SWLRLFNMM [9-mer drawn by CPL-biased importance sampling]” the figure was under 5.00.
“SLLPLLGIL [9-mer drawn by CPL-biased importance sampling]” had a pEC50 of under 5.00.
The same measure, in the same setting: with “LYQPLVGMV [9-mer drawn by CPL-biased importance sampling]” the figure was under 5.00.
Still for that read-out and setting: with “LMMPLAPMM [9-mer drawn by CPL-biased importance sampling]” the figure was under 5.00; with “RLMPLVPVV [9-mer drawn by CPL-biased importance sampling]”, under 5.00; with “HYMPLFGVT [9-mer drawn by CPL-biased importance sampling]”, under 5.00.
On the same count and under the same terms, with “HYQPLVPVL [9-mer drawn by CPL-biased importance sampling]” the figure was under 5.00.
Sequence “QKQPLLPII [9-mer drawn by CPL-biased importance sampling]” showed a pEC50 of under 5.00.
Still for that read-out and setting: the figure for “SNMRLMPVV [9-mer drawn by CPL-biased importance sampling]” is under 5.00; for “SYPPLVGMV [9-mer drawn by CPL-biased importance sampling]” it is under 5.00; for “RYPPLVPML [9-mer drawn by CPL-biased importance sampling]” it is under 5.00.
On to “DMMPLLPII [9-mer drawn by CPL-biased importance sampling]”, for which the pEC50 is under 5.00.
Same read-out and setting: with “LLMPLVGLW [9-mer drawn by CPL-biased importance sampling]” the figure was under 5.00; with “QMLPLLPLF [9-mer drawn by CPL-biased importance sampling]”, under 5.00.
The same measure, in the same setting: the figure for “DKPRLVPVI [9-mer drawn by CPL-biased importance sampling]” is under 5.00; for “IWPPLVPVT [9-mer drawn by CPL-biased importance sampling]” it is under 5.00.
Same read-out and setting: the figure for “DYQRLVNLL [9-mer drawn by CPL-biased importance sampling]” is under 5.00; for “IWQPLAGVA [9-mer drawn by CPL-biased importance sampling]” it is under 5.00.
In the case of “ENMPLMPMI [9-mer drawn by CPL-biased importance sampling]”, the pEC50 was under 5.00.
Still for that read-out and setting: the figure for “NWQPLVSIW [9-mer drawn by CPL-biased importance sampling]” is under 5.00; for “QKQRLASIL [9-mer drawn by CPL-biased importance sampling]” it is under 5.00.
Turning to “QMQRLVNIV [9-mer drawn by CPL-biased importance sampling]”, the pEC50 is under 5.00.
With “EWQPLFSIA [9-mer drawn by CPL-biased importance sampling]”, the pEC50 is under 5.00.
The same measure, in the same setting: the figure for “DNPRLFGLT [9-mer drawn by CPL-biased importance sampling]” is under 5.00; for “EYMPLVGML [9-mer drawn by CPL-biased importance sampling]” it is under 5.00; for “KNLPLVPII [9-mer drawn by CPL-biased importance sampling]” it is under 5.00.
The same measure, in the same setting: with “ELPPLMSVW [9-mer drawn by CPL-biased importance sampling]” the figure was under 5.00; with “RNPPLVGIW [9-mer drawn by CPL-biased importance sampling]”, under 5.00.
Same read-out and setting: the figure for “DHPPLFPMA [9-mer drawn by CPL-biased importance sampling]” is under 5.00.
With “RHMRLFGML [9-mer drawn by CPL-biased importance sampling]”, the pEC50 was under 5.00.
“NLMRLMNLA [9-mer drawn by CPL-biased importance sampling]” showed a pEC50 of under 5.00.
On the same count and under the same terms, the figure for “ILMPLMPMT [9-mer drawn by CPL-biased importance sampling]” is under 5.00; for “RLLPLVSVI [9-mer drawn by CPL-biased importance sampling]” it is under 5.00.
“QYLRLFNIT [9-mer drawn by CPL-biased importance sampling]”: the pEC50 is under 5.00.
The same measure, in the same setting: the figure for “SNPPLMGLM [9-mer drawn by CPL-biased importance sampling]” is under 5.00; for “QKLPLLGLL [9-mer drawn by CPL-biased importance sampling]” it is under 5.00.
The same measure, in the same setting: with “QMPPLVNIM [9-mer drawn by CPL-biased importance sampling]” the figure was under 5.00.
The same measure, in the same setting: with “AHPPLFNVM [9-mer drawn by CPL-biased importance sampling]” the figure was under 5.00; with “DLQRLVSVI [9-mer drawn by CPL-biased importance sampling]”, under 5.00; with “SMMRLLPVW [9-mer drawn by CPL-biased importance sampling]”, under 5.00.
As to “QWPRLVNVF [9-mer drawn by CPL-biased importance sampling]”, the pEC50 was under 5.00.
The same measure, in the same setting: with “ALMRLFSLF [9-mer drawn by CPL-biased importance sampling]” the figure was under 5.00; with “KWLRLMPMM [9-mer drawn by CPL-biased importance sampling]”, under 5.00.
Still for that read-out and setting: the figure for “NKLRLVNIM [9-mer drawn by CPL-biased importance sampling]” is under 5.00; for “QHPPLASLI [9-mer drawn by CPL-biased importance sampling]” it is under 5.00.
Same read-out and setting: the figure for “EYPPLLNIL [9-mer drawn by CPL-biased importance sampling]” is under 5.00.

The same assay, now with this note: Supplementary Figure 6; top 20 fungal database peptides; 4C6 overnight with C1R HLA A*24:02, MIP-1β ELISA, duplicate conditions.
“EYPPLVPIL [fungal peptide, Aspergillus niger, Unnamed protein product]”: the pEC50 was under 5.00.
